Laboratory results as given in PubChem BioAssay (NCI).
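Results reflect a 48-hour exposure of cells in 96-well plates to compound at five concentrations. GI50 marks 50% less growth. TGI is the concentration that stops growth completely.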

Key:
Experiment in all cases: DTP human tumour cell line panel, 48 h
A498 renal = tested on: A498 renal
HCT-15 colon = tested on: HCT-15 colon
RXF 393 renal = tested on: RXF 393 renal
HOP-62 NSCLC = tested on: HOP-62 NSCLC
UO-31 renal = tested on: UO-31 renal
SF-539 CNS = tested on: SF-539 CNS
SK-OV-3 ovarian = tested on: SK-OV-3 ovarian
CCRF-CEM leukemia = tested on: CCRF-CEM leukemia
HCC-2998 colon = tested on: HCC-2998 colon
TK-10 renal = tested on: TK-10 renal

Compound: CCOC(=O)/C(=C/c1ccc([N+](=O)[O-])cc1)C(=O)c1ccccc1
- GI50 (A498 renal): 2.33 µM
- TGI (A498 renal): 5.37 µM
- GI50 (HCT-15 colon): 1.99 µM
- TGI (HCT-15 colon): 4.51 µM
- GI50 (RXF 393 renal): 2 µM
- TGI (RXF 393 renal): 3.67 µM
- GI50 (HOP-62 NSCLC): 2.28 µM
- TGI (HOP-62 NSCLC): 6.07 µM
- GI50 (UO-31 renal): 1.66 µM
- TGI (UO-31 renal): 3.18 µM
- GI50 (SF-539 CNS): 1.82 µM
- TGI (SF-539 CNS): 3.58 µM
- GI50 (SK-OV-3 ovarian): 11.5 µM
- TGI (SK-OV-3 ovarian): 23.6 µM
- GI50 (CCRF-CEM leukemia): 3.03 µM
- TGI (CCRF-CEM leukemia): 9.11 µM
- GI50 (HCC-2998 colon): 1.87 µM
- TGI (HCC-2998 colon): 3.43 µM
- GI50 (TK-10 renal): 2.27 µM
- TGI (TK-10 renal): 6.54 µM

Compound: CC1(C)OC(C(N)=O)=C(C(N)=O)O1
- TGI (A498 renal): > 100 µM
- TGI (HCT-15 colon): > 100 µM
- TGI (RXF 393 renal): > 100 µM
- TGI (HOP-62 NSCLC): > 100 µM
- TGI (UO-31 renal): > 100 µM
- TGI (SF-539 CNS): > 100 µM
- TGI (SK-OV-3 ovarian): > 100 µM
- TGI (CCRF-CEM leukemia): > 100 µM
- TGI (HCC-2998 colon): > 100 µM
- TGI (TK-10 renal): > 100 µM

Compound: CN(C)C(=O)/N=c1\ss/c(=N\C(=S)N(C)C)n1-c1ccccc1
- TGI (A498 renal): > 100 µM
- TGI (HCT-15 colon): > 100 µM
- TGI (RXF 393 renal): > 79.9 µM
- TGI (HOP-62 NSCLC): > 100 µM
- TGI (UO-31 renal): > 100 µM
- TGI (SF-539 CNS): > 78.4 µM
- TGI (SK-OV-3 ovarian): > 100 µM
- TGI (CCRF-CEM leukemia): > 48.8 µM
- TGI (HCC-2998 colon): > 100 µM
- TGI (TK-10 renal): 84.7 µM

Compound: Cc1ccc([N+](=O)[O-])cc1NC(=O)C(=O)Cc1occc(=O)c1O
- TGI (A498 renal): > 100 µM
- TGI (HCT-15 colon): > 100 µM
- TGI (RXF 393 renal): > 100 µM
- TGI (HOP-62 NSCLC): > 100 µM
- TGI (UO-31 renal): > 100 µM
- TGI (SF-539 CNS): > 100 µM
- TGI (SK-OV-3 ovarian): > 100 µM
- TGI (CCRF-CEM leukemia): > 100 µM
- TGI (HCC-2998 colon): > 100 µM
- TGI (TK-10 renal): > 100 µM

Compound: CCC(C)OC(=O)C1C2CCC(O2)C1C(=O)O (stereo not given)
- TGI (A498 renal): > 100 µM
- TGI (HCT-15 colon): > 56 µM
- TGI (RXF 393 renal): > 56.2 µM
- TGI (HOP-62 NSCLC): > 100 µM
- TGI (UO-31 renal): > 100 µM
- TGI (SF-539 CNS): > 100 µM
- TGI (SK-OV-3 ovarian): > 100 µM
- TGI (CCRF-CEM leukemia): > 100 µM
- TGI (HCC-2998 colon): > 100 µM
- TGI (TK-10 renal): > 100 µM

Compound: COC(=O)C(C(=O)C(=O)Nc1ccccc1C(C)=O)c1nc2ccc(Cl)cc2[nH]c1=O (stereo not given)
- TGI (A498 renal): > 100 µM
- TGI (HCT-15 colon): > 100 µM
- TGI (RXF 393 renal): > 100 µM
- TGI (HOP-62 NSCLC): > 100 µM
- TGI (UO-31 renal): > 100 µM
- TGI (SF-539 CNS): > 100 µM
- TGI (SK-OV-3 ovarian): > 100 µM
- TGI (CCRF-CEM leukemia): > 100 µM
- TGI (HCC-2998 colon): > 100 µM
- TGI (TK-10 renal): > 100 µM

Compound: CCN(CC)CCOc1ccc(/C(=C(\C)Cc2ccc(OC)cc2)c2ccc(OC(=O)NCc3ccccc3)cc2)cc1
- GI50 (A498 renal): 4.3 µM
- TGI (A498 renal): 17.7 µM
- GI50 (HCT-15 colon): 1.53 µM
- TGI (HCT-15 colon): 3.23 µM
- GI50 (RXF 393 renal): 1.65 µM
- TGI (RXF 393 renal): 3.08 µM
- GI50 (HOP-62 NSCLC): 2.09 µM
- TGI (HOP-62 NSCLC): 4.87 µM
- GI50 (UO-31 renal): 1.52 µM
- TGI (UO-31 renal): 3.02 µM
- GI50 (SF-539 CNS): 1.75 µM
- TGI (SF-539 CNS): 3.19 µM
- GI50 (SK-OV-3 ovarian): 5.11 µM
- TGI (SK-OV-3 ovarian): 18.7 µM
- GI50 (CCRF-CEM leukemia): 2.34 µM
- TGI (CCRF-CEM leukemia): 6.45 µM
- GI50 (HCC-2998 colon): 1.84 µM
- TGI (HCC-2998 colon): 3.62 µM
- GI50 (TK-10 renal): 2.68 µM
- TGI (TK-10 renal): 6.77 µM

Compound: Cc1c2c(nn1C(=O)c1nn(-c3ccc(Cl)cc3)cc1O)-c1ccccc1CC2
- GI50 (A498 renal): 0.0181 µM
- TGI (A498 renal): 0.0612 µM
- GI50 (HCT-15 colon): 0.0496 µM
- TGI (HCT-15 colon): > 100 µM
- GI50 (RXF 393 renal): 0.0441 µM
- TGI (RXF 393 renal): > 42.8 µM
- GI50 (HOP-62 NSCLC): 0.0432 µM
- TGI (HOP-62 NSCLC): > 100 µM
- GI50 (UO-31 renal): 0.0603 µM
- TGI (UO-31 renal): > 100 µM
- GI50 (SF-539 CNS): 0.041 µM
- TGI (SF-539 CNS): 28.1 µM
- GI50 (SK-OV-3 ovarian): 0.202 µM
- TGI (SK-OV-3 ovarian): > 100 µM
- GI50 (CCRF-CEM leukemia): 0.0477 µM
- TGI (CCRF-CEM leukemia): > 49.1 µM
- GI50 (HCC-2998 colon): 0.377 µM
- TGI (HCC-2998 colon): > 100 µM
- GI50 (TK-10 renal): 0.0429 µM
- TGI (TK-10 renal): > 100 µM

Compound: COc1ccc(-c2cc(=O)c3c(OC)c(OC)c(OC)c(OC)c3o2)cc1OC
- TGI (A498 renal): > 100 µM
- TGI (HCT-15 colon): > 100 µM
- TGI (RXF 393 renal): > 100 µM
- TGI (HOP-62 NSCLC): > 100 µM
- TGI (UO-31 renal): > 100 µM
- TGI (SF-539 CNS): > 100 µM
- TGI (SK-OV-3 ovarian): > 100 µM
- TGI (CCRF-CEM leukemia): > 100 µM
- TGI (HCC-2998 colon): > 100 µM
- TGI (TK-10 renal): > 100 µM
